Measurements taken from patent US4778824A, “Method for suppressing a transplantation immunity and treating an allergic disease and an autoimmune disease” (Zaidan Hojin Biseibutsu Kagaku Kenkyu Kai, priority 1984, dated 1988).
Where a name gives a salt, the structure may show the parent alone.

Experiments:
IgM antibody production = test: Inhibition of IgM antibody production against sheep red blood cells (plaque-forming cells); assay type: in vivo, CDF 1 mice; conditions: 3 days; for IgM plaque-forming cell count: ± S.D.
Excerpt: Additionally, in accordance with the method of Jerne et al. (Jerne et al., Cell-bound Antibodies, pp. 109-122, 1963), the inventors examined the inhibitory action of spergualin on humoral immunity which is primarily the domain of the B-lymphocytes. The test procedure consisted of counting the number of spleen cells that were extracted from mice sensitized by antigenic sheep red blood cells and which formed immunoglobulin M (IgM) plaques. […] As summarized in Experiments 4 and 5 spergualin inhibited the production of IgG and IgE.
CDF 1 mice (6-10 wk old, female) were immunized by intravenous injection of 1×10^8 sheep red blood cells. The mice were intraperitoneally administered varying doses (see Table 3 below) of the test compound for a period of 3 days starting from the day following the intravenous injection. Four days later, spleen cells were isolated from the mice and the number of IgM plaque-forming cells was counted by a known method (Yata et al.; Gan to Kagaku Ryoho (Cancer and Chemotherapy), vol. 2, pp. 903-908, 1975). The percentage inhibition of IgM antibody production was calculated by (1-B/A)×100 wherein A is the count for a control group (given physiological saline) and B, for the treated group.

[1] = test system: graft-versus-host disease; test: Delay of graft-versus-host disease in irradiated CBA mice transplanted with C57BL/6 bone marrow cells and spleen cells; assay type: in vivo; conditions: Donor C57BL/6, 10 days
Procedure: Female CBA mice of 9 week-old and female C57BL/6 mice of 9 week-old were used. A group consisted of 10 mice. Bone marrow cells (10^7) and spleen cells (5×10^6) from CBA mice and C57BL/6 mice were injected i.v. into the whole body irradiation (850 rad) CBA mice. Spergualin was administered i.p. once a day for 10 days starting on one day after the injection of bone marrow cells and spleen cells. The data is indicated as the median survival time.

Allokiller T-lymphocyte = test: Inhibition of allokiller T-lymphocyte genesis (51Cr release from P815 mastocytoma); assay type: in vivo, C 57 BL/b mice
Procedure: 3×10^7 P815 mastocytoma cells were administered intraperitoneally to C 57 BL/b mice (10 wk old). Twelve days later, spleen cels were isolated and used as effector cells (E). Target cells (T) which were ^51 Cr labelled P815 mastocytoma cells were challenged by the effector cells at varying E/T ratios and the allokiller activity was assayed in terms of the percentage release ^51 Cr. Spergualin was administered for nine consecutive days starting on the day following the transplantation or a single administration was made on the 9th day.

[2] = test system: acute experimental allergic encephalomyelitis; test: Effect on acute experimental allergic encephalomyelitis; assay type: in vivo, strain 13 guinea pigs; conditions: 2 weeks, with S.D.
Procedure: Male strain 13 guinea pigs were used. A group consisted of 5 guinea pigs. An aqueous suspension of 50% syngeneic spinal cord homogenate was emulsified in an equal volume of complete Freund's adjuvant containing M. tuberculosis at 20 mg/ml. The antigen emulsion (0.1 ml) was injected both hindfootpads of a guinea pig. Spergualin was administered i.p. for 2 weeks at 0.78 and 1.56 mg/kg.

N=C(N)NCCCCC(O)CC(=O)NC(O)C(=O)NCCCCNCCCN (centres unmarked) [spergualin (trihydrochloride)]
IgM plaque-forming cell count (IgM antibody production; 1 mg/kg/day i.p.): 1,304 ± 188 cells/10^6 spleen cells × 100
IgM plaque-forming cell count (IgM antibody production; 5 mg/kg/day i.p., significant (P < 0.001)): 632 ± 87 cells/10^6 spleen cells × 100
IgM plaque-forming cell count (IgM antibody production; 10 mg/kg/day i.p., significant (P < 0.001)): 392 ± 87 cells/10^6 spleen cells × 100
IgM plaque-forming cell count (IgM antibody production; 25 mg/kg/day i.p., significant (P < 0.001)): 149 ± 53 cells/10^6 spleen cells × 100
IgM plaque-forming cell count (IgM antibody production; 50 mg/kg/day i.p., significant (P < 0.001)): 64 ± 24 cells/10^6 spleen cells × 100
inhibition at 1 mg/kg/day (IgM antibody production; Mus musculus, Erythrocyte, ip, 72 h, IgM, 1 mg/kg/day i.p.): 10.3%
inhibition at 5 mg/kg/day (IgM antibody production; Mus musculus, Erythrocyte, ip, 72 h, IgM, 5 mg/kg/day i.p.): 56.5%
inhibition at 10 mg/kg/day (IgM antibody production; Mus musculus, Erythrocyte, ip, 72 h, IgM, 10 mg/kg/day i.p.): 73%
inhibition at 25 mg/kg/day (IgM antibody production; Mus musculus, Erythrocyte, ip, 72 h, IgM, 25 mg/kg/day i.p.): 89.7%
inhibition at 50 mg/kg/day (IgM antibody production; Mus musculus, Erythrocyte, ip, 72 h, IgM, 50 mg/kg/day i.p.): 95.5%
80-day survivors, Survivors/Total ([1]; 3.13 mg/kg i.p. once a day): 2/10
MST (median survival time) ([1]; 3.13 mg/kg i.p. once a day): 33.0 days
80-day survivors, Survivors/Total ([1]; 6.25 mg/kg i.p. once a day): 3/10
MST (median survival time) ([1]; 6.25 mg/kg i.p. once a day, P < 0.05): 45.3 days
80-day survivors, Survivors/Total ([1]; 12.5 mg/kg i.p. once a day): 4/10
MST (median survival time) ([1]; 12.5 mg/kg i.p. once a day, P < 0.01): 55.0 days
80-day survivors, Survivors/Total ([1]; 25.0 mg/kg i.p. once a day): 9/10
MST (median survival time) ([1]; 25.0 mg/kg i.p. once a day, P < 0.01): > 80.0 days
Percent release of ^51 Cr (Allokiller T-lymphocyte; 5 mg/kg/day, days 1-9 after transplantation, E/T ratio 5): 6%
Percent release of ^51 Cr (Allokiller T-lymphocyte; 5 mg/kg/day, days 1-9 after transplantation, E/T ratio 10): 8%
Percent release of ^51 Cr (Allokiller T-lymphocyte; 5 mg/kg/day, days 1-9 after transplantation, E/T ratio 20): 17%
Percent release of ^51 Cr (Allokiller T-lymphocyte; 50 mg/kg, single administration day 9, E/T ratio 5): 21%
Percent release of ^51 Cr (Allokiller T-lymphocyte; 50 mg/kg, single administration day 9, E/T ratio 10): 30%
Percent release of ^51 Cr (Allokiller T-lymphocyte; 50 mg/kg, single administration day 9, E/T ratio 20): 51%
Percent release of ^51 Cr (Allokiller T-lymphocyte; 50 mg/kg/day, days 1-9 after transplantation, E/T ratio 5): 0%
Percent release of ^51 Cr (Allokiller T-lymphocyte; 50 mg/kg/day, days 1-9 after transplantation, E/T ratio 10): 0%
Percent release of ^51 Cr (Allokiller T-lymphocyte; 50 mg/kg/day, days 1-9 after transplantation, E/T ratio 20): 1%
Mean survival time ([2]; 0.78 mg/kg i.p.): 15.2 ± 1.8 days
Mean survival time ([2]; 1.56 mg/kg i.p., P < 0.01): 23.6 ± 9.2 days
